Experimental data taken from patent US20200405715A1, “COMPOSITIONS AND METHODS FOR TREATING CANCER AND INFLAMMATORY DISEASES” (University of Pittsburgh - Of the Commonwealth System of …, priority 2016, published 2020).

Tests used:
HepG2 tumor tissue = assay: PD/PK study, tumor tissue immunoblotting after single oral dose; type: in vivo, nude mice
Protocol: Nude mice were implanted with HepG2 cells (10^6 cells) through subcutaneous injection. Five weeks later, once tumor size reaches 0.3 cm^3, mice were randomized and given 1 dose of 3-(decylamino)-5-phenylcyclohex-2-en-1-one (15 mg/kg) by oral gavage. Mice were then euthanized, plasma and tumor tissue were isolated for analysis. Tumor tissue were grinded and assayed for protein immunoblotting (n=3-4).
A PD/PK study was also performed. Mice were implanted with HepG2 cells (10^6 cells) through subcutaneous injection. 5 weeks later, once tumor size reached 0.3 cm^3, mice were randomized and given 1 dose of 3-(decylamino)-5-phenylcyclohex-2-en-1-one (15 mg/kg) by oral gavage (FIG. 9A). […] NRF2 protein levels peaked 4 h after administration of BC1558 and started to decline by 8-24 h post-dose. The timing of CDT1 accumulation was compared to NRF2, peaking 4 h after 3-(decylamino)-5-phenylcyclohex-2-en-1-one administration.

HepG2 tumor implants = HepG2 tumor implants in nude mice, tumor growth; type: in vivo, athymic nude mice; settings: compounds in drinking water (15 mg/kg/d), start at tumor size 0.1 cm^3 (FIG. 8)
Protocol: Mice were implanted with HepG2 cells (10^6 cells) through subcutaneous injection. 2 weeks later, once tumor size reaches ˜0.1 cm^3, mice were randomized and the treatment began by adding compounds to the drinking water ([…]). Tested compounds were: Vehicle, 3-(decylamino)-5-phenylcyclohex-2-en-1-one (BC1558), 3-(dibenzylamino)-5-phenylcyclohex-2-en-1-one (BC1634) or 3-((4-phenoxybenzyl)amino)-5-phenylcyclohex-2-en-1-one (BC1653). Tumor volume measurements over time were graphed (n=4-5 mice/group, *P<0.05 versus Vehicle).
As a complementary in vivo model, tumorogenicity was further assessed after implanting HepG2 cells along with 3-(decylamino)-5-phenylcyclohex-2-en-1-one, 3-(dibenzylamino)-5-phenylcyclohex-2-en-1-one, 3-((4-phenoxybenzyl)amino)-5-phenylcyclohex-2-en-1-one treatment in athymic nude mice. Mice were implanted with HepG2 cells through subcutaneous injection. Two weeks later, once tumor size reached 0.1 cm^3, the mice were randomized and the treatment began by adding compounds to the drinking water (15 mg/kg/d).

human lung tissue = assay: LPS-treated human lung slices, cytokines and immunoblotting; type: cell-based
Protocol: Cells were then treated with LPS (10 ng/ml) for additional 2 h. Media were then collected and TNF concentration was determined by ELISA. […] Lung tissue was collected and assayed for immunoblotting. Culture media was collected and assayed for cytokines.
3-(decylamino)-5-phenylcyclohex-2-en-1-one was next tested in human lung tissue. Human lung slices were pretreated with 3-(decylamino)-5-phenylcyclohex-2-en-1-one for 18 h before LPS treatment (100 ng/ml) for additional 4 h. […] 3-(decylamino)-5-phenylcyclohex-2-en-1-one reduced nedd8-cullins level and rescued IκBα in a dose dependent manner.

HepG2 cells = assay: Cell cycle analysis by BrdU uptake and 7-AAD staining; type: cell-based
Protocol: HepG2 cells were treated with 3-(decylamino)-5-phenylcyclohex-2-en-1-one for 36 h with various concentrations. Cells were then analyzed by BrdU uptake and 7-AAD staining, G0, G1, S, G2/M phase cells were then quantitated and graphed. […] Confluent monolayers of HepG2 cells were injured and cellular migration into the wound was determined under vehicle or 3-(decylamino)-5-phenylcyclohex-2-en-1-one treated condition. 36 h later cells were then observed under white field microscopy and recovery of cells to wound heal was quantified and graphed (right).
HepG2 cells were treated with 3-(decylamino)-5-phenylcyclohex-2-en-1-one at 10 μM for various times. At each time point, cells were analyzed by BrdU uptake and 7-AAD staining, G0, G1, S, G2/M phase cells were then quantitated and graphed. […] Cells were then observed under white field microscopy.

[1] = single dose 15 mg/kg oral gavage, tumor tissue
[2] = human lung slices, dose dependent

## CCCCCCCCCCNC1=CC(=O)CC(c2ccccc2)C1 (stereo not drawn) [BC1558, 3-(decylamino)-5-phenylcyclohex-2-en-1-one]
HepG2 tumor tissue; at 8 h after a single administration, 15 mg/kg oral gavage
  phosphorylated CHK1 (Ser 317), DNA damage in the tumor: increased levels
HepG2 tumor tissue; [1]
  steady state levels of NRF2 and CDT1: time-dependent increase
  time at which NRF2 protein levels started to decline post-dose: 8 to 24 h
  time of maximal effect on NEDD8-cullin levels post-dose: 2 to 4 h
  time of peak CDT1 accumulation after administration: 4 h
  time of peak NRF2 protein levels after administration: 4 h
HepG2 tumor tissue; single dose 15 mg/kg oral gavage, tumor tissue (FIG. 9B)
  time to decrease of NEDD8-cullin levels after administration: ≤ 1 h
HepG2 tumor implants
  tumor size compared to the vehicle: Significantly reduced tumor size
Human lung tissue; [2]
  IκBα: rescued
  nedd8-cullins level: reduced
Human lung tissue; pretreated 18 h, LPS 100 ng/ml for 4 h
  LPS induced IL1, IL6 and TNF release from lung tissue: potently inhibited
HepG2 cells; 10 μM, at 16 h (FIG. 6B)
  G0 and G2/M phases: increased
  S phase: effectively decreased
HepG2 cells; 36 h, dose dependent (FIG. 5B)
  G0 and G2/M phases: increased
  S phase: effectively decreased
